Values quoted from earlier work in patent US4174406A, “Terpenylaminoalkanol fish toxicants” (priority 1977, dated 1979).
Where two headings read alike, the source gives them in different places.

Test system: Carp
Settings: registered fish toxicants, cited from earlier work

Row | Compound | effect of water pH on activity | selectivity for carp | effect of water pH on activity (listed as antimyein)
1 | C=C(C)[C@H]1Cc2c(ccc3c2O[C@@H]2COc4cc(OC)c(OC)cc4[C@@H]2C3=O)O1 [Rotenone] | adversely affected by waters of high pH | non-selective for carp | –
2 | antimycin | adversely affected by pH | non-selective for carp | adversely affected by waters of high pH
